Here are results for 26 compounds from patent US10280163B2 (BeiGene, Ltd., priority 2015, dated 2019).

Assay [1] has as its target T1, Recombinant IDO1 (Homo sapiens, UniProt P14902).
T1 construct: His tag (N); made in house; host or cells: E. coli
The experiment in a line: IDO1 enzymatic assay. The format is biochemical. Particulars: for IC50: 50 nM IDO1, 1.3 mM D-tryptophan, read-out: Enzyme IC50 (nM) IDO1. Summed up: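 N-terminally His-tagged enzyme from E. coli (50 nM) was incubated with compound, 1.3 mM D-tryptophan, 5 mM ascorbate, 6.25 μM methylene blue and 0.4 mg/mL catalase in 50 mM potassium phosphate pH 7.5, 0.1% BSA for 1.5 h at 24° C. N′-formylkynurenine formation was followed at 321 nm for 1 h; IC50 from rate slopes.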

In assay [2] the target is T2, Recombinant TDO (Homo sapiens, UniProt P48775).
T2 construct: His tag (C); made in house; host or cells: E. coli
The experiment in a line: TDO enzymatic assay. The format is biochemical. Particulars: for IC50: 100 nM TDO, 0.5 mM L-tryptophan, read-out: Enzyme IC50 (nM) TDO. The procedure:
Recombinant TDO was overexpressed and purified from E. coli cells with a C-terminal His tag. TDO enzymatic assay was performed using the same methodology as IDO1 enzymatic assay except that 100 nM TDO and 0.5 mM L-tryptophan (Km concentration) were used in the TDO assay.

Assay [3] has as its target T3, cellular IDO1 in HeLa cells (Homo sapiens, UniProt P14902).
T3 construct: endogenous in cells; host or cells: HeLa cells (American Type Tissue Culture Collection), induced with human recombinant IFN-γ
Kind of assay: HeLa cell-based IDO1 Kyn (kynurenine) production assay. To be noted: IFN-γ 100 ng/mL, 48 hours. In short, it runs like this: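 IFN-γ-induced HeLa cells (100 ng/mL) in phenol red-free DMEM with 0.4 mM L-Trp, compounds added together with IFN-γ, 48 h at 37 °C. Supernatant Kyn read at 480 nm after TCA precipitation and 4-(dimethylamino)benzaldehyde reaction. IC50 from four-parameter logistic fit.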

The mark [4] stands for this setting: Table 1, 5-substituted imidazo[1,5-a]pyridines.
The mark [5] stands for this setting: Table 2, 8-substituted imidazo[1,5-a]pyridines.

pEC50, pIC50: −log10 of the molar value. Read-outs that look alike come from different tables or passages of the source. A value given as a limit tells only on which side of the number the result lay.

T3 sequence (P14902 whole entry): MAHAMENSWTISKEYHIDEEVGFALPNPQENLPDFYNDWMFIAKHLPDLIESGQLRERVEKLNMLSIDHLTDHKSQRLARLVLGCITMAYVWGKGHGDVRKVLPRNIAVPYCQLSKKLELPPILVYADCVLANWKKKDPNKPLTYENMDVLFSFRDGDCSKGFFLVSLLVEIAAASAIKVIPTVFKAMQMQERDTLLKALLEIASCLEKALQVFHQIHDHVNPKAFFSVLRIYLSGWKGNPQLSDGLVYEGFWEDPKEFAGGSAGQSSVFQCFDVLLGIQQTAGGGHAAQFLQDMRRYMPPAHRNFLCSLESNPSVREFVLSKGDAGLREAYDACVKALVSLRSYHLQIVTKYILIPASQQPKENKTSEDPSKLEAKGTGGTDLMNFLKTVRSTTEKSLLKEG
T1 sequence (P14902 whole entry): as above
T2 sequence (P48775 whole entry): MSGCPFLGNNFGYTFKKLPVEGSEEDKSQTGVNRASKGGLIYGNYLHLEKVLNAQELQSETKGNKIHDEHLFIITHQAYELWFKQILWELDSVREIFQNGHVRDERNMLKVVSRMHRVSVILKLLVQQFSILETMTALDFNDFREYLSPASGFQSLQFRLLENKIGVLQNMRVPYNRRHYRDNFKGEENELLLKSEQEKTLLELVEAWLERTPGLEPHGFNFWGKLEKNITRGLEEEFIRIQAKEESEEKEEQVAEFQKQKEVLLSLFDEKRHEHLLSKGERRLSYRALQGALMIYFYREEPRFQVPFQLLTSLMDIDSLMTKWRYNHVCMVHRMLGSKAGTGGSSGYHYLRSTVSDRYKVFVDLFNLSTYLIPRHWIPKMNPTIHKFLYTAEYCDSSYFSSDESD

In general, IC50 refers to the midpoint of a concentration-inhibition curve. In general, pEC50 refers to −log10 of the EC50, conventionally taken in molar units. `OC(CC1CCCCC1)c1c(Cl)c(Cl)cc2cncn12` (stereo not drawn) [Example A144, 2-cyclohexyl-1-(6,7-dichloroimidazo[1,5-a]pyridin-5-yl)ethan-1-ol]: the results for the IC50 in assay [1] (setting [4]) and in assay [2] (setting [4]) were 32 nM and 1500 nM, respectively. Besides, the pEC50 in assay [3] (setting [4]) was 5.91.
The corresponding values for `OC(c1cc(Cl)c(Cl)c2cncn12)C1CCCCC1` (stereo not drawn) [Example A146, cyclohexyl(7,8-dichloroimidazo[1,5-a]pyridin-5-yl)methanol] are 28 nM, 210 nM and 5.90.
The corresponding values for `OC(c1c(Cl)c(Br)cc2cncn12)C1CCCCC1` (stereo not drawn) [Example A148, (7-bromo-6-chloroimidazo[1,5-a]pyridin-5-yl)(cyclohexyl)methanol] are 39 nM, 420 nM and 5.83.
The matching figures for `OC(c1c(Cl)c(Br)cc2cncn12)C1CCCC1` (stereo not drawn) [Example A149, (7-bromo-6-chloroimidazo[1,5-a]pyridin-5-yl)(cyclopentyl)methanol]: 35 nM, 160 nM and 5.69.
In the case of `OC(c1c(Cl)c(F)cc2cncn12)C1CCCCC1` (stereo not drawn) [Example A151, (6-chloro-7-fluoroimidazo[1,5-a]pyridin-5-yl)(cyclohexyl)methanol], the IC50 stood at 39 nM in assay [1] (setting [4]) and 600 nM in assay [2] (setting [4]). This compound showed a pEC50 in assay [3] (setting [4]) of 6.38.
The corresponding values for `OC(CC1CCCCC1)c1c(Cl)c(F)cc2cncn12` (stereo not drawn) [Example A152, 1-(6-chloro-7-fluoroimidazo[1,5-a]pyridin-5-yl)-2-cyclohexylethan-1-ol] are 33 nM, 7400 nM and 6.69.
The matching figures for `COc1cc(C(O)C2CCCCC2)n2cncc2c1Cl` (stereo not drawn) [Example A153, (8-chloro-7-methoxyimidazo[1,5-a]pyridin-5-yl)(cyclohexyl)methanol]: 500 nM, 1800 nM and 5.17.
With `OC(c1c(Cl)c(Cl)c(Cl)c2cncn12)C1CCCCC1` (stereo not drawn) [Example A154, cyclohexyl(6,7,8-trichloroimidazo[1,5-a]pyridin-5-yl)methanol], the IC50 in assay [1] (setting [4]) stood at 430 nM; in assay [2] (setting [4]), 8400 nM. Besides, the pEC50 in assay [3] (setting [4]) is 6.18.
The matching figures for `OC(c1c(F)c(Cl)cc2cncn12)C1CCCCC1` (stereo not drawn) [Example A156, (7-chloro-6-fluoroimidazo[1,5-a]pyridin-5-yl)(cyclohexyl)methanol]: 48 nM, 190 nM and 5.78.
On to `OC(c1cccn2cncc12)C1CCCCC1` (stereo not drawn) [Example B001, Cyclohexyl(imidazo[1,5-a]pyridin-8-yl)methanol], for which the IC50 in assay [1] (setting [5]) worked out at 1000 nM; in assay [2] (setting [5]) it was 630 nM. Further, the pEC50 in assay [3] (setting [5]) was below 5.00.
The corresponding values for `OC(CC1CCCCC1)c1cccn2cncc12` (stereo not drawn) [Example B006, 2-Cyclohexyl-1-(imidazo[1,5-a]pyridin-8-yl)ethan-1-ol] are 330 nM, 3300 nM and below 5.00.
As to `OC(CCC1CCCCC1)c1cccn2cncc12` (stereo not drawn) [Example B008, 3-cyclohexyl-1-(imidazo[1,5-a]pyridin-8-yl)propan-1-ol], the values for the IC50 in assay [1] (setting [5]) and in assay [2] (setting [5]) were 620 nM and 17000 nM, respectively. For the same compound, the pEC50 in assay [3] (setting [5]) was below 5.00.
The matching figures for `Cc1cc(C(O)C2CCCCC2)c2cncn2c1` (stereo not drawn) [Example B011, Cyclohexyl (6-methylimidazo[1,5-a]pyridin-8-yl)methanol]: 170 nM, 190 nM and below 5.00.
The matching figures for `Cc1cc(C(O)CC2CCCCC2)c2cncn2c1` (stereo not drawn) [Example B012, 2-Cyclohexyl-1-(6-methylimidazo[1,5-a]pyridin-8-yl)ethanol]: 130 nM, 130 nM and below 5.00.
Turning to `OC(CC1CCCCC1)c1cc(Cl)cn2cncc12` (stereo not drawn) [Example B013, 1-(6-Chloroimidazo[1,5-a]pyridin-8-yl)-2-cyclohexylethan-1-ol], the IC50 in assay [1] (setting [5]) was 240 nM; in assay [2] (setting [5]) it was 190 nM. The same compound showed a pEC50 in assay [3] (setting [5]) below 5.00.
The corresponding values for `OC(c1cc(Cl)cn2cncc12)C1CCCCC1` (stereo not drawn) [Example B014, (6-Chloroimidazo[1,5-a]pyridin-8-yl)(cyclohexyl)methanol] are 180 nM, 100 nM and below 5.00.
With `Cc1ccn2cncc2c1C(O)CC1CCCCC1` (stereo not drawn) [Example B101, 2-cyclohexyl-1-(7-methylimidazo[1,5-a]pyridin-8-yl)ethan-1-ol], the IC50 in assay [1] (setting [5]) was determined as 14 nM; in assay [2] (setting [5]), 1000 nM. The pEC50 in assay [3] (setting [5]) is 6.36.
The corresponding values for `Cc1ccn2cncc2c1C(O)C1CCCCC1` (stereo not drawn) [Example B102, cyclohexyl(7-methylimidazo[1,5-a]pyridin-8-yl)methanol] are 23 nM, 360 nM and 5.81.
The matching figures for `OC(c1c(I)ccn2cncc12)C1CCCCC1` (stereo not drawn) [Example B103, cyclohexyl(7-iodoimidazo[1,5-a]pyridin-8-yl)methanol]: 69 nM, 8000 nM and 6.24.
The corresponding values for `OC(c1c(Cl)ccn2cncc12)C1CCCCC1` (stereo not drawn) [Example B104, (7-chloroimidazo[1,5-a]pyridin-8-yl)(cyclohexyl)methanol] are 38 nM, 940 nM and 5.53.
As usually defined, the pIC50 is the negative decadic logarithm of the IC50, by convention in mol/L. As to `OC(CC1CCCCC1)c1c(Cl)ccn2cncc12` (stereo not drawn) [Example B105, 1-(7-chloroimidazo[1,5-a]pyridin-8-yl)-2-cyclohexylethan-1-ol], the pIC50 in assay [1] (selectivity examples, read-out: enzymatic IC50 value to IDO1) was 7.48; in assay [2] (selectivity examples, read-out: enzymatic IC50 value to TDO), 5.31. The compound also gave a pEC50 in assay [3] (setting [5]) of 6.06.
For `CC(C)c1ccn2cncc2c1C(O)C1CCCCC1` (stereo not drawn) [Example B106, Cyclohexyl (7-isopropylimidazo[1,5-a]pyridin-8-yl)methanol], the concentration for half-maximal inhibition (IC50) is 138 nM in assay [1] (setting [5]) and 1200 nM in assay [2] (setting [5]). This compound gave a pEC50 in assay [3] (setting [5]) of 6.34.
For `OC(c1c(C2CC2)ccn2cncc12)C1CCCCC1` (stereo not drawn) [Example B107, Cyclohexyl (7-cyclopropylimidazo[1,5-a]pyridin-8-yl)methanol], the half-inhibitory concentration (IC50) in assay [1] (setting [5]) came to 48 nM; in assay [2] (setting [5]) it was 850 nM. The pEC50 in assay [3] (setting [5]) was 6.59.
The matching figures for `CC(C)c1ccn2cncc2c1C(O)CC1CCCCC1` (stereo not drawn) [Example B108, 2-Cyclohexyl-1-(7-isopropylimidazo[1,5-a]pyridin-8-yl)ethan-1-ol]: 59 nM, 560 nM and 6.41.
The matching figures for `OC(c1c(C2CC2)ccn2cncc12)C1CCCC1` (stereo not drawn) [Example B109]: 35 nM, 4600 nM and 6.03.
The matching figures for `OC(CC1CCCCC1)c1c(C2CC2)ccn2cncc12` (stereo not drawn) [Example B110]: 53 nM, 1000 nM and 6.59.
